Experimental data reported in patent US20120035169A1, “AEROSOL FORMULATION FOR THE INHALATION OF BETA-AGONISTS” (BOEHRINGER INGELHEIM INTERNATIONAL GMBH, priority 2004, published 2012).
Structures can show the parent of a compound that is named as a salt.

With `Cc1cc(C)cc(CC(C)(C)NCC(O)c2cc(O)cc3c2OCC(=O)N3)c1` (centres unmarked) (as salt: hydrochloride) as the molecule, how does the melting point read?
The melting point was 235 to 238 °C.

Which melting point does the source give for `CC(C)(Cc1ccc(OCCCC(=O)O)cc1)NCC(O)c1cc(O)cc2c1OCC(=O)N2` (centres unmarked) (as salt: salt) [Example 16, Acid addition salt of 4-(4-{2-[2-hydroxy-2-(6-hydroxy-3-oxo-3,4-dihydro-2H-benzo[1,4]oxazin-8-yl)-ethylamino]-2-methyl-propyl}-phenoxy)-butyric acid] here?
The melting point was 201 to 204 °C.

For `Cc1cc(F)ccc1CC(C)(C)NCC(O)c1cc(O)cc2c1OCC(=O)N2` (centres unmarked) (as salt: hydrochloride), which melting point is on record?
The melting point was 278 to 280 °C.

With `Cc1cc(CC(C)(C)NCC(O)c2cc(O)cc3c2OCC(=O)N3)ccc1F` (centres unmarked) (as salt: hydrochloride) as the molecule, how does the melting point read?
Its melting point is 278 to 280 °C.

With `CC(C)(Cc1ccc(F)cc1F)NCC(O)c1cc(O)cc2c1OCC(=O)N2` (centres unmarked) (as salt: hydrochloride) as the molecule, how does the melting point read?
Its melting point is 279 to 280 °C.
